PubChem BioAssay (NCI)
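GI50 marks 50% less growth. TGI marks complete inhibition of growth.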

Columns and labels:
Experiment in all cases: NCI tumour cell line growth inhibition, 384-well format
COLO 205 colon = tested on: COLO 205 colon
CCRF-CEM leukemia = tested on: CCRF-CEM leukemia
SNB-19 CNS = tested on: SNB-19 CNS
UO-31 renal = tested on: UO-31 renal
RPMI-8226 leukemia = tested on: RPMI-8226 leukemia
MDA-MB-231 breast = tested on: MDA-MB-231 breast
786-0 renal = tested on: 786-0 renal
HT29 colon = tested on: HT29 colon
BT-549 breast = tested on: BT-549 breast
M14 melanoma = tested on: M14 melanoma
IGROV1 ovarian = tested on: IGROV1 ovarian
MCF7 breast = tested on: MCF7 breast
T-47D breast = tested on: T-47D breast
HOP-92 NSCLC = tested on: HOP-92 NSCLC
HS 578T breast = tested on: HS 578T breast
HCT-116 colon = tested on: HCT-116 colon
TK-10 renal = tested on: TK-10 renal
SN12C renal = tested on: SN12C renal
SNB-75 CNS = tested on: SNB-75 CNS
OVCAR-3 ovarian = tested on: OVCAR-3 ovarian
NCI/ADR-RES ovarian = tested on: NCI/ADR-RES ovarian
KM12 colon = tested on: KM12 colon
DU-145 prostate = tested on: DU-145 prostate
MDA-MB-468 breast = tested on: MDA-MB-468 breast
OVCAR-4 ovarian = tested on: OVCAR-4 ovarian
OVCAR-5 ovarian = tested on: OVCAR-5 ovarian
U251 glioblastoma = tested on: U251 glioblastoma
NCI-H23 lung = tested on: NCI-H23 lung
MOLT-4 leukemia = tested on: MOLT-4 leukemia
SK-MEL-28 melanoma = tested on: SK-MEL-28 melanoma
SK-MEL-5 melanoma = tested on: SK-MEL-5 melanoma
SR leukemia = tested on: SR leukemia
SF-295 CNS = tested on: SF-295 CNS
UACC-257 melanoma = tested on: UACC-257 melanoma
MDA-MB-435 melanoma = tested on: MDA-MB-435 melanoma
MALME-3M melanoma = tested on: MALME-3M melanoma
SK-MEL-2 melanoma = tested on: SK-MEL-2 melanoma
A498 renal = tested on: A498 renal
SW-620 colon = tested on: SW-620 colon
A549 NSCLC = tested on: A549 NSCLC
UACC-62 melanoma = tested on: UACC-62 melanoma
NCI-H226 lung = tested on: NCI-H226 lung
K-562 leukemia = tested on: K-562 leukemia
ACHN renal = tested on: ACHN renal
EKVX NSCLC = tested on: EKVX NSCLC
SK-OV-3 ovarian = tested on: SK-OV-3 ovarian
OVCAR-8 ovarian = tested on: OVCAR-8 ovarian

Cc1cc2c(cc1C)NC1=C(N2)OC(c2c3ccccc3cc3ccccc23)C1=O (stereo not drawn)
GI50 (COLO 205 colon): 786 nM | TGI (COLO 205 colon): 1680 nM | GI50 (CCRF-CEM leukemia): 194 nM | TGI (CCRF-CEM leukemia): 341 nM | GI50 (SNB-19 CNS): 397 nM | TGI (SNB-19 CNS): 1540 nM | GI50 (UO-31 renal): 1940 nM | TGI (UO-31 renal): 9300 nM | GI50 (RPMI-8226 leukemia): 223 nM | TGI (RPMI-8226 leukemia): 390 nM | GI50 (MDA-MB-231 breast): 554 nM | TGI (MDA-MB-231 breast): 2810 nM | GI50 ([…]-0 renal): 261 nM | TGI (786-0 renal): 630 nM | GI50 (HT29 colon): 303 nM | TGI (HT29 colon): 988 nM | GI50 (BT-549 breast): 270 nM | TGI (BT-549 breast): 581 nM | GI50 (M14 melanoma): 290 nM | TGI (M14 melanoma): 653 nM | GI50 (IGROV1 ovarian): 953 nM | TGI (IGROV1 ovarian): 2630 nM | GI50 (MCF7 breast): 397 nM | TGI (MCF7 breast): 1910 nM | GI50 (T-47D breast): 1070 nM | TGI (T-47D breast): 6250 nM | GI50 (HOP-92 NSCLC): 398 nM | TGI (HOP-92 NSCLC): 1490 nM | GI50 (HS 578T breast): 178 nM | TGI (HS 578T breast): 355 nM | GI50 (HCT-116 colon): 286 nM | TGI (HCT-116 colon): 759 nM | GI50 (TK-10 renal): 548 nM | TGI (TK-10 renal): 7540 nM | GI50 (SN12C renal): 652 nM | TGI (SN12C renal): 4130 nM | GI50 (SNB-75 CNS): 381 nM | TGI (SNB-75 CNS): 1230 nM | GI50 (OVCAR-3 ovarian): 237 nM | TGI (OVCAR-3 ovarian): 582 nM | GI50 (NCI/ADR-RES ovarian): 194 nM | TGI (NCI/ADR-RES ovarian): 355 nM | GI50 (KM12 colon): 310 nM | TGI (KM12 colon): 964 nM | GI50 (DU-145 prostate): 429 nM | TGI (DU-145 prostate): 1430 nM | GI50 (MDA-MB-468 breast): 218 nM | TGI (MDA-MB-468 breast): 436 nM | GI50 (OVCAR-4 ovarian): 377 nM | TGI (OVCAR-4 ovarian): 1970 nM | GI50 (OVCAR-5 ovarian): 1300 nM | TGI (OVCAR-5 ovarian): 5220 nM | GI50 (U251 glioblastoma): 281 nM | TGI (U251 glioblastoma): 691 nM | GI50 (NCI-H23 lung): 288 nM | TGI (NCI-H23 lung): 763 nM | GI50 (MOLT-4 leukemia): 193 nM | TGI (MOLT-4 leukemia): 337 nM | GI50 (SK-MEL-28 melanoma): 573 nM | TGI (SK-MEL-28 melanoma): 4410 nM | GI50 (SK-MEL-5 melanoma): 603 nM | TGI (SK-MEL-5 melanoma): 1150 nM | GI50 (SR leukemia): 189 nM | TGI (SR leukemia): 340 nM | GI50 (SF-295 CNS): 208 nM | TGI (SF-295 CNS): 495 nM | GI50 (UACC-257 melanoma): 716 nM | TGI (UACC-257 melanoma): 3290 nM | GI50 (MDA-MB-435 melanoma): 217 nM | TGI (MDA-MB-435 melanoma): 425 nM | GI50 (MALME-3M melanoma): 334 nM | TGI (MALME-3M melanoma): 1100 nM | GI50 (SK-MEL-2 melanoma): 224 nM | TGI (SK-MEL-2 melanoma): 415 nM | GI50 (A498 renal): 319 nM | TGI (A498 renal): 924 nM | GI50 (SW-620 colon): 454 nM | TGI (SW-620 colon): 7470 nM | GI50 (A549 NSCLC): 626 nM | TGI (A549 NSCLC): 2200 nM | GI50 (UACC-62 melanoma): 329 nM | TGI (UACC-62 melanoma): 1250 nM | GI50 (NCI-H226 lung): 743 nM | TGI (NCI-H226 lung): 1860 nM | GI50 (K-562 leukemia): 208 nM | TGI (K-562 leukemia): 491 nM | GI50 (ACHN renal): 546 nM | TGI (ACHN renal): 13600 nM | GI50 (EKVX NSCLC): 431 nM | TGI (EKVX NSCLC): 6440 nM | GI50 (SK-OV-3 ovarian): 253 nM | TGI (SK-OV-3 ovarian): 732 nM | GI50 (OVCAR-8 ovarian): 290 nM | TGI (OVCAR-8 ovarian): 794 nM

O=C(O)c1ccc(CN2CCC(CN[C@@H]3C[C@H]3c3ccccc3)CC2)cc1
GI50 (COLO 205 colon): > 100000 nM | TGI (COLO 205 colon): > 100000 nM | GI50 (CCRF-CEM leukemia): > 100000 nM | TGI (CCRF-CEM leukemia): > 100000 nM | GI50 (SNB-19 CNS): > 100000 nM | TGI (SNB-19 CNS): > 100000 nM | GI50 (UO-31 renal): > 100000 nM | TGI (UO-31 renal): > 100000 nM | GI50 (RPMI-8226 leukemia): > 100000 nM | TGI (RPMI-8226 leukemia): > 100000 nM | GI50 (MDA-MB-231 breast): > 100000 nM | TGI (MDA-MB-231 breast): > 100000 nM | GI50 ([…]-0 renal): > 100000 nM | TGI (786-0 renal): > 100000 nM | GI50 (HT29 colon): > 100000 nM | TGI (HT29 colon): > 100000 nM | GI50 (BT-549 breast): > 100000 nM | TGI (BT-549 breast): > 100000 nM | GI50 (M14 melanoma): > 100000 nM | TGI (M14 melanoma): > 100000 nM | GI50 (IGROV1 ovarian): > 100000 nM | TGI (IGROV1 ovarian): > 100000 nM | GI50 (MCF7 breast): > 100000 nM | TGI (MCF7 breast): > 100000 nM | GI50 (T-47D breast): > 100000 nM | TGI (T-47D breast): > 100000 nM | GI50 (HOP-92 NSCLC): > 100000 nM | TGI (HOP-92 NSCLC): > 100000 nM | GI50 (HS 578T breast): > 100000 nM | TGI (HS 578T breast): > 100000 nM | GI50 (HCT-116 colon): > 100000 nM | TGI (HCT-116 colon): > 100000 nM | GI50 (TK-10 renal): > 100000 nM | TGI (TK-10 renal): > 100000 nM | GI50 (SN12C renal): > 100000 nM | TGI (SN12C renal): > 100000 nM | GI50 (SNB-75 CNS): > 100000 nM | TGI (SNB-75 CNS): > 100000 nM | GI50 (OVCAR-3 ovarian): > 100000 nM | TGI (OVCAR-3 ovarian): > 100000 nM | GI50 (NCI/ADR-RES ovarian): > 100000 nM | TGI (NCI/ADR-RES ovarian): > 100000 nM | GI50 (KM12 colon): > 100000 nM | TGI (KM12 colon): > 100000 nM | GI50 (DU-145 prostate): > 100000 nM | TGI (DU-145 prostate): > 100000 nM | GI50 (MDA-MB-468 breast): > 100000 nM | TGI (MDA-MB-468 breast): > 100000 nM | GI50 (OVCAR-4 ovarian): > 100000 nM | TGI (OVCAR-4 ovarian): > 100000 nM | GI50 (OVCAR-5 ovarian): > 100000 nM | TGI (OVCAR-5 ovarian): > 100000 nM | GI50 (U251 glioblastoma): > 100000 nM | TGI (U251 glioblastoma): > 100000 nM | GI50 (NCI-H23 lung): > 100000 nM | TGI (NCI-H23 lung): > 100000 nM | GI50 (MOLT-4 leukemia): > 100000 nM | TGI (MOLT-4 leukemia): > 100000 nM | GI50 (SK-MEL-28 melanoma): > 100000 nM | TGI (SK-MEL-28 melanoma): > 100000 nM | GI50 (SK-MEL-5 melanoma): > 100000 nM | TGI (SK-MEL-5 melanoma): > 100000 nM | GI50 (SR leukemia): > 100000 nM | TGI (SR leukemia): > 100000 nM | GI50 (SF-295 CNS): > 100000 nM | TGI (SF-295 CNS): > 100000 nM | GI50 (UACC-257 melanoma): > 100000 nM | TGI (UACC-257 melanoma): > 100000 nM | GI50 (MDA-MB-435 melanoma): > 100000 nM | TGI (MDA-MB-435 melanoma): > 100000 nM | GI50 (MALME-3M melanoma): > 100000 nM | TGI (MALME-3M melanoma): > 100000 nM | GI50 (SK-MEL-2 melanoma): > 100000 nM | TGI (SK-MEL-2 melanoma): > 100000 nM | GI50 (A498 renal): > 100000 nM | TGI (A498 renal): > 100000 nM | GI50 (SW-620 colon): > 100000 nM | TGI (SW-620 colon): > 100000 nM | GI50 (A549 NSCLC): > 100000 nM | TGI (A549 NSCLC): > 100000 nM | GI50 (UACC-62 melanoma): > 100000 nM | TGI (UACC-62 melanoma): > 100000 nM | GI50 (NCI-H226 lung): > 100000 nM | TGI (NCI-H226 lung): > 100000 nM | GI50 (K-562 leukemia): > 100000 nM | TGI (K-562 leukemia): > 100000 nM | GI50 (ACHN renal): > 100000 nM | TGI (ACHN renal): > 100000 nM | GI50 (EKVX NSCLC): > 100000 nM | TGI (EKVX NSCLC): > 100000 nM | GI50 (SK-OV-3 ovarian): > 100000 nM | TGI (SK-OV-3 ovarian): > 100000 nM | GI50 (OVCAR-8 ovarian): > 100000 nM | TGI (OVCAR-8 ovarian): > 100000 nM
